Test results published in patent US5679671A, “Amino acid derivative” (Eisai Co., Ltd., priority 1993, dated 1997).
One block for each molecule: values may come before it.

Assays:
[1] = biological target: T1, vasopressin (V2) receptor (Rattus norvegicus, UniProt Q00788); experiment: V2 receptor binding assay, rat kidney membrane (Experiment E-3); details: [3H]-Arg-vasopressin, pH 7.4
T1 construct: rat kidney (V2); from tissue; host or cells: rat kidney membranes
Method: (§1) Membrane specimens of rat liver (V1) and rat kidney (V2) were used. 100,000 counts (3.69 nM) of [^3 H]-Arg-vasopressin, 25 μg (1 mg protein/ml) of each membrane specimen and a test medicament (10^-7 to 10^-5 M) were incubated in a total volume of 250 μl of an assay buffer (pH=7.4) containing 10 mM of MgCl2, 2 mM of EGTA and 20 mM of HEPES at 4° C. over day and night. Then, the incubation was washed with 5-ml portions of the buffer 5 times to thereby separate the membrane specimen binding to vasopressin followed by filtration with the use of a glass filter (GF/F). This glass filter was dried for about 3 hours and mixed with a cocktail for liquid scintillation (10 ml, ACSII). After allowing to stand overnight, the amount of the [^3 H]-Arg-vasopressin binding to the membrane was determined with a liquid scintillation counter and the inhibition ratio was calculated in accordance with the following formula: […]
(§2) B1; the amount of [^3 H]-Arg-vasopressin binding to the membrane in the presence of excessive vasopressin (10 μM)
(§3) C0; the amount of [^3 H]-Arg-vasopressin binding to the membrane in the absence of the test medicament and
(§4) C1; the amount of [^3 H]-Arg-vasopressin binding to the membrane in the presence of both the test medicament in a known amount and [^3 H]-Arg-vasopressin. […]

SHR = experiment: Effect by oral administration on SHR, tail cuff method (Experiment C-6); assay type: in vivo, Spontaneously hypertensive male rats
Method: By using Spontaneously hypertensive male rats (aged 16 to 17 weeks), the compound of Example C-8 and a comparative compound [S-(R*,R*)]-2,3,4,5-tetrahydro-3-[(2-mercapto-1-oxohexyl)amino]-2-oxo-1H-benzazepine-1-acetic acid having the following structure each dissolved in 0.5% methylcellulose were orally administered thereto. Hypotensive effects were measured by the tail cuff method and data obtained before the oral administration and 2, 4 and 8 hours after the administration were compared. […] Accordingly, the compound of Example C-8 has an activity about 10 times as high as that of the comparative compound. [drawing 35]

[2] = biological target: T1, vasopressin (V2) receptor; experiment: V2 receptor binding assay, rat kidney membrane (Experiment F-2); details: [3H]-Arg-vasopressin, pH 7.4
Method: as §1, with “in” for “in a total volume of”, “μl in total” for “μl”
as §2, §3, §4

[3] = biological target: T2, vasopressin (V1) receptor (Rattus norvegicus, UniProt P30560); experiment: V1 receptor binding assay, rat liver membrane (Experiment F-2); details: [3H]-Arg-vasopressin, pH 7.4
T2 construct: Membrane specimens of rat liver (V1); from tissue; host or cells: rat liver membranes
T2 sequence (P30560 whole entry): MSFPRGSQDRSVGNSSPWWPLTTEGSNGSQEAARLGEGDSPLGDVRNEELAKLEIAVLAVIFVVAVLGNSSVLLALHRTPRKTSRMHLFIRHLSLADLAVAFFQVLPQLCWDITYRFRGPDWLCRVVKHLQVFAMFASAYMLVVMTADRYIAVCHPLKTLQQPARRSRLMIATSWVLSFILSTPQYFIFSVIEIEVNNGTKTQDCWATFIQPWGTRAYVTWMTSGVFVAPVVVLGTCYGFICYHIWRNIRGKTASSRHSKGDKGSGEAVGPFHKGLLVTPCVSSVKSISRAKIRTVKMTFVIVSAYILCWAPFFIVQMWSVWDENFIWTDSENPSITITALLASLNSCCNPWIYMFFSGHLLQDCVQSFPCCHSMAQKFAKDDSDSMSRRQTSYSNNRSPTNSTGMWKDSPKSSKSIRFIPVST
Method: as §1, with “in” for “in a total volume of”, “μl in total” for “μl”
as §2, §3, §4

NEP = biological target: T3, NEP (Rattus norvegicus, UniProt P07861); experiment: NEP inhibition activity using rat renal cortex (Experiment A-1); assay type: biochemical; set-up: membrane fraction prepared from rat renal cortex; from tissue; host or cells: rat renal cortex, membrane fraction (method of Booth and Kenny); details: rat renal cortex membrane fraction
T3 sequence (P07861 1-750): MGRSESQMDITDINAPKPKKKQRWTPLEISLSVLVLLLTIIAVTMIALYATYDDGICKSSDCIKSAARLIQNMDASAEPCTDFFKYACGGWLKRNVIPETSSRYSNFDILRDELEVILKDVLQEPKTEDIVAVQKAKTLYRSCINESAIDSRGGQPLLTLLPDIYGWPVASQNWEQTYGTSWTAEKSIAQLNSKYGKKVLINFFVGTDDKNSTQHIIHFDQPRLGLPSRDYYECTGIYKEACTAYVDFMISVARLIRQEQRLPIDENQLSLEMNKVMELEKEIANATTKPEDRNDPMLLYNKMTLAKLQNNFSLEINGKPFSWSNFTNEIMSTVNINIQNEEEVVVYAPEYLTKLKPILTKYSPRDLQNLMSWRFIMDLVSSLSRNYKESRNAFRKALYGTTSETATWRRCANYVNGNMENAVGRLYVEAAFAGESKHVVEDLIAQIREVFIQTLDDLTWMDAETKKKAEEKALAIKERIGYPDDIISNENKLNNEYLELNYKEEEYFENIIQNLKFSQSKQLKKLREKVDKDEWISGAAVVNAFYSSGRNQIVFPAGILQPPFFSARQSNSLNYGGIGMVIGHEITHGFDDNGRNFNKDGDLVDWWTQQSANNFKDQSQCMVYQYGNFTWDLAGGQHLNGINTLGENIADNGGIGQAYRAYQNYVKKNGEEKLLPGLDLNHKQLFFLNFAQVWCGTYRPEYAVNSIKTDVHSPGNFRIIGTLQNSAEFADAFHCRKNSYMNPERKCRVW
Method: The NEP activity was determined by using a membrane fraction prepared from rat renal cortex in accordance with the method of Booth and Kenny (A Rapid Metod for the Purificaton of Microvilli from Rabbit Kidney., Andrew G. Booth and A. John Kenny, Biochem j., 1974, 142, […].).
The NEP activity was determined by the following manner in accordance with the method of Orlowsky and Wilk (Purification and Specificity of a Membrane-Bound Metalloendopeptidase from Bovine Pituitaries., Marian Orlowsky and Shrwin Wilk, Biochemistry, 1981, 20, 4942-4950.).
As a substrate, benzoyl-glycyl-arginyl-arginyl-2-naphthylamide (benzoyl-Gly-Arg-Arg-2-naphthylamide (Nova Biochem, Switzerland)) was used. In the presence of an NEP enzyme preparation and excessive leucine aminopeptidase (sigma chemical Co., U.S.A.), the liberated naphthylamine was made to undergo color development with first garnet (Sigma chemical Co., U.S.A.), followed by the measurement of the absorbance at a wavelength of 540 nm.
With respect to the NEP inhibition activity, the inhibitor was added to the experimental system as described above in such a manner as to give the final concentrations of 1, 3, 10, 30, 100, 300 and 1000 nM, an inhibition curve was prepared, and then the concentration at which 50% inhibition was achieved was taken as IC50.

[4] = Blood level and bioavailability in rats (Experiment E-2); details: rat, blood, po
Text: Then changes in the blood level of each medicament were monitored with the lapse of time by using liquid chromatography.

T1 sequence (Q00788 whole entry): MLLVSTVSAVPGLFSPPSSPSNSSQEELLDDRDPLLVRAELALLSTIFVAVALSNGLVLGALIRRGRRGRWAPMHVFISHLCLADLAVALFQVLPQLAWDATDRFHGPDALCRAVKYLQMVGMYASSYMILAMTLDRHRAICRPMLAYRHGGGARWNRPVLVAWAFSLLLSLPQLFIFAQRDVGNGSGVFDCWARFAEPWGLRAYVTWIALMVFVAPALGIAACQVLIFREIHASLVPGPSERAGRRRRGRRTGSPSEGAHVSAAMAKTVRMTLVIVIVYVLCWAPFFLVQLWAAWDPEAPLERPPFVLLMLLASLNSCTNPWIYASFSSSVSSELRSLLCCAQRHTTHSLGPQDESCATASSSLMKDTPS

IC50 [1]: 4490 nM
Compound: CC(C)[C@H](S)C(=O)N[C@H]1Cc2ccc(-c3ccccc3)cc2[C@H]2CCC[C@@H](C(=O)O)N2C1=O [Example E-10, [4S-[4α,7α(R*),12bβ]]-7-[(S)-2-Mercapto-3-methylbutyrylamino]-6-oxo-11-phenyl-1,2,3,4,6,7,8,12b-octahydropyrido[2,1-a][2]benzazepine-4-carboxylic acid]

Compound: CC[C@H](C)[C@H](S)C(=O)N[C@H]1CCC[C@H]2SC[C@@H](C(=O)O)N2C1=O [Example C-8, [3R-[3α,6α,(S*),9aβ]]-6-[[(2S,3S)-3-methyl-1-oxo-2-thiopentyl]amino]-octahydro-5-oxothiazol[3,2-a]-azepine-3-carboxylic acid]
hypotensive effect (tail cuff method) (SHR; 1.0 mg/kg oral, before and 2, 4 and 8 hours after): comparable to the one achieved by 10 mg/kg of the above comparative compound
activity relative to the comparative compound (SHR; oral, SHR): about 10 times

IC50 [2]: 1390 nM
IC50 [3]: ≥ 10000 nM
Compound: O=C(N[C@H]1CCC[C@H]2SC[C@@H](C(=O)O)N2C1=O)[C@@H](S)Cc1ccccc1 [Example F-17, [3R-[3α,6α(S*),9aβ]]-6-[[(S)-1-Oxo-2-thio-3-phenylpropyl]amino]-octahydro-5-oxothiazol[3,2-a]-azepine-3-carboxylic acid]

IC50 (NEP): 6.2 nM
Compound: CC[C@H](C)[C@H](S)C(=O)N[C@H]1CCc2ccccc2N(CC(=O)O)C1=O [Example A-11, (S)-3-[(2S,3S)-2-Mercapto-3-methylvarelylamino]-1-carboxymethyl-2,3,4,5-tetrahydro-1H-[1]benzazepin-2-one]

bioavailability ([4]; 10 mg/kg): 4.3%
bioavailability ([4]; 30 mg/kg): 7.8%
Compound: O=C(N[C@H]1Cc2ccccc2[C@H]2CCC[C@@H](C(=O)O)N2C1=O)[C@@H](S)Cc1ccccc1 [Comp. cpd. E-1, [4S-[4α,7α(R*),12bβ]]-7-[(1-oxo-2-(S)-thio-3-phenyl-propyl)amino]-1,2,3,4,6,7,8,12b-octahydro-6-oxopyrido-[2,1-a][2]benzazepine-4-carboxylic acid, reference compound]

IC50 (NEP): 13 nM
Compound: CC[C@H](C)[C@H](S)C(=O)NC1CCc2ccccc2N(CC(=O)O)C1=O (stereo partly drawn) [Example A-9, 1-Carboxymethyl-3-[(2S,3S)-2-mercapto-3-methylvarelylamino]-1H-[1]benzazepin-2-one]
